Results reported in PubChem BioAssay AID1963979 (Molecular Pharmacology Branch, DTP, NCI, 2024).
One block for each molecule: values may come before it.

Test system: 361931-004-R-J1-PDC multicell spheroid viability
Assay: Anticancer human tumor 361931-004-R-J1-PDC patient-derived colon adenocarcinoma cell line growth inhibition [PI3K]
Conditions: for IC50: curve of first compound; for viability, T/C: stronger effect = lower value
In short: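 Viability of mixed-cell spheroids was determined after exposure to pairwise combinations, one partner being inavolisib, alpelisib, duvelisib or copanlisib. Highest tested concentration matched clinical Cmax where known and 10 microM where not, descending in half-log steps.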

[1] = second compound 0.0316 µM, first compound 0.0316 µM
[2] = second compound 0.0316 µM, first compound 0.1 µM
[3] = second compound 0.1 µM, first compound 0.0316 µM
[4] = second compound 0.1 µM, first compound 0.1 µM
[5] = second compound 0.316 µM, first compound 0.0316 µM
[6] = second compound 0.316 µM, first compound 0.1 µM
[7] = second compound 1 µM, first compound 0.0316 µM
[8] = second compound 1 µM, first compound 0.1 µM
[9] = second compound 3.16 µM, first compound 0.0316 µM
[10] = second compound 3.16 µM, first compound 0.1 µM
[11] = second compound 10 µM, first compound 0.0316 µM
[12] = second compound 10 µM, first compound 0.1 µM
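Note: spheroids exposed to agents for seven days before readout.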

IC50 (second compound 0.0316 µM): 3.51 µM | IC50 (second compound 0.1 µM): 3.26 µM | IC50 (second compound 0.316 µM): 2.91 µM | IC50 (second compound 1 µM): 4.19 µM | IC50 (second compound 3.16 µM): 2.99 µM | IC50 (second compound 10 µM): 3.19 µM
Structure (SMILES): CC(C)NCC(C(=O)N1CCN(c2ncnc3c2C(C)CC3O)CC1)c1ccc(Cl)cc1 (centres undefined) + CC(Nc1ncnc2nc[nH]c12)c1cc2cccc(Cl)c2c(=O)n1-c1ccccc1
viability, T/C [1]: 99.7% | viability, T/C [2]: 97.3% | viability, T/C (second compound 0.0316 µM, first compound 0.316 µM): 99% | viability, T/C (second compound 0.0316 µM, first compound 1 µM): 78% | viability, T/C (second compound 0.0316 µM, first compound 3.16 µM): 52.6% | viability, T/C (second compound 0.0316 µM, first compound 10 µM): 34.3% | viability, T/C [3]: 104% | viability, T/C [4]: 99.3% | viability, T/C (second compound 0.1 µM, first compound 0.316 µM): 99.8% | viability, T/C (second compound 0.1 µM, first compound 1 µM): 81.3% | viability, T/C (second compound 0.1 µM, first compound 3.16 µM): 50.8% | viability, T/C (second compound 0.1 µM, first compound 10 µM): 31.7% | viability, T/C [5]: 101% | viability, T/C [6]: 104% | viability, T/C (second compound 0.316 µM, first compound 0.316 µM): 94% | viability, T/C (second compound 0.316 µM, first compound 1 µM): 79.1% | viability, T/C (second compound 0.316 µM, first compound 3.16 µM): 47.4% | viability, T/C (second compound 0.316 µM, first compound 10 µM): 29.8% | viability, T/C [7]: 106% | viability, T/C [8]: 104% | viability, T/C (second compound 1 µM, first compound 0.316 µM): 95% | viability, T/C (second compound 1 µM, first compound 1 µM): 86.1% | viability, T/C (second compound 1 µM, first compound 3.16 µM): 54.8% | viability, T/C (second compound 1 µM, first compound 10 µM): 31.9% | viability, T/C [9]: 105% | viability, T/C [10]: 107% | viability, T/C (second compound 3.16 µM, first compound 0.316 µM): 98.3% | viability, T/C (second compound 3.16 µM, first compound 1 µM): 79.6% | viability, T/C (second compound 3.16 µM, first compound 3.16 µM): 48.6% | viability, T/C (second compound 3.16 µM, first compound 10 µM): 26.8% | viability, T/C [11]: 106% | viability, T/C [12]: 93.9% | viability, T/C (second compound 10 µM, first compound 0.316 µM): 102% | viability, T/C (second compound 10 µM, first compound 1 µM): 76.7% | viability, T/C (second compound 10 µM, first compound 3.16 µM): 51.5% | viability, T/C (second compound 10 µM, first compound 10 µM): 26.7%

IC50 (second compound 0.0316 µM): > 0.1 µM | IC50 (second compound 0.1 µM): > 0.1 µM | IC50 (second compound 0.316 µM): > 0.1 µM | IC50 (second compound 1 µM): > 0.1 µM | IC50 (second compound 3.16 µM): > 0.1 µM | IC50 (second compound 10 µM): > 0.1 µM
Structure (SMILES): CC(C)n1nc(-c2ccc3oc(N)nc3c2)c2c(N)ncnc21 + CC(Nc1ncnc2nc[nH]c12)c1cc2cccc(Cl)c2c(=O)n1-c1ccccc1
viability, T/C (second compound 0.0316 µM, first compound 0.000316 µM): 103% | viability, T/C (second compound 0.0316 µM, first compound 0.001 µM): 107% | viability, T/C (second compound 0.0316 µM, first compound 0.00316 µM): 105% | viability, T/C (second compound 0.0316 µM, first compound 0.01 µM): 104% | viability, T/C [1]: 108% | viability, T/C [2]: 77.9% | viability, T/C (second compound 0.1 µM, first compound 0.000316 µM): 111% | viability, T/C (second compound 0.1 µM, first compound 0.001 µM): 106% | viability, T/C (second compound 0.1 µM, first compound 0.00316 µM): 104% | viability, T/C (second compound 0.1 µM, first compound 0.01 µM): 99.1% | viability, T/C [3]: 107% | viability, T/C [4]: 81.5% | viability, T/C (second compound 0.316 µM, first compound 0.000316 µM): 98.2% | viability, T/C (second compound 0.316 µM, first compound 0.001 µM): 103% | viability, T/C (second compound 0.316 µM, first compound 0.00316 µM): 108% | viability, T/C (second compound 0.316 µM, first compound 0.01 µM): 109% | viability, T/C [5]: 115% | viability, T/C [6]: 74.8% | viability, T/C (second compound 1 µM, first compound 0.000316 µM): 97.4% | viability, T/C (second compound 1 µM, first compound 0.001 µM): 105% | viability, T/C (second compound 1 µM, first compound 0.00316 µM): 104% | viability, T/C (second compound 1 µM, first compound 0.01 µM): 107% | viability, T/C [7]: 105% | viability, T/C [8]: 72.3% | viability, T/C (second compound 3.16 µM, first compound 0.000316 µM): 109% | viability, T/C (second compound 3.16 µM, first compound 0.001 µM): 106% | viability, T/C (second compound 3.16 µM, first compound 0.00316 µM): 100% | viability, T/C (second compound 3.16 µM, first compound 0.01 µM): 96.2% | viability, T/C [9]: 100% | viability, T/C [10]: 72.4% | viability, T/C (second compound 10 µM, first compound 0.000316 µM): 107% | viability, T/C (second compound 10 µM, first compound 0.001 µM): 107% | viability, T/C (second compound 10 µM, first compound 0.00316 µM): 107% | viability, T/C (second compound 10 µM, first compound 0.01 µM): 104% | viability, T/C [11]: 103% | viability, T/C [12]: 63.5%
